We go through 8 compounds from patent publication US4000281A, “Pyrazole derivatives” (priority 1971, dated 1976).

What all share (type): in vivo, mice
For one assay, the system named is Influenza viruses. In words: Mouse-Survival Test (Test No. 1), Influenza virus strain not given. To be noted: unidentified influenza virus, 360 h; for response vs control in vivo at 500 mg/kg / response vs control in vivo at 50 mg/kg / response vs control in vivo at 5 mg/kg: read-out: Survival Index (S.I.); for responders at 500 mg/kg / responders at 50 mg/kg / responders at 5 mg/kg: read-out: Survival Percent.

The subject of assay [1] is Influenza virus Jap 305. Nature of the assay: Mouse-Survival Test (Test No. 1), Influenza Jap 305. Conditions: for S.I.: significant if >1.24.
The subject of assay [2] is Influenza virus Jap 305. To be noted: 1 dose, 30 minutes before infection, 15 multiples of LD50.
Where [3] appears, read: Jap 305, 50 mg/kg PO, virus dose 15 multiples of LD50.
Where [4] appears, read: Jap 305, 500 mg/kg IP, virus dose 22 multiples of LD50.
Setting [5] is: Jap 305, 500 mg/kg PO, virus dose 15 multiples of LD50.

Like-named read-outs stand apart in the source and are kept apart here.

Take `Cc1[nH]nc(-c2ccncc2)c1-c1ccccc1O` [Compound B, 3-(4-pyridyl)-4-(2-hydroxyphenyl)-5-methylpyrazole]: in the assay with Influenza viruses (ip), the response vs control in vivo at 500 mg/kg was 129% and the responders at 500 mg/kg came out at 0%.
For `CCCCc1[nH]nc(-c2ccncc2)c1-c1ccccc1O` [Compound E, 3-(4-pyridyl)-4-(2-hydroxyphenyl)-5-n-butylpyrazole], in the assay on Influenza viruses (ip), the response vs control in vivo at 50 mg/kg was determined as 130%, the response vs control in vivo at 500 mg/kg was determined as 162%, the responders at 50 mg/kg is 10% and the responders at 500 mg/kg stood at 10%.
In the case of `CCCCn1nc(CC)c(-c2ccccc2O)c1-c1ccncc1` [Compound I, 2-n-butyl-3-(4-pyridyl)-4-(2-hydroxyphenyl)-5-ethylpyrazole], in the assay with Influenza viruses (ip), the response vs control in vivo at 5 mg/kg was found to be 132%, the response vs control in vivo at 50 mg/kg worked out at 148%, the response vs control in vivo at 500 mg/kg was found to be 191% and the responders at 5 mg/kg was 0%. Besides, in the assay on Influenza viruses (ip), the responders at 50 mg/kg was 0% and the responders at 500 mg/kg worked out at 14%.
In the case of `CCCc1[nH]nc(-c2ccncc2)c1-c1ccccc1O` [Compound C, 3-(4-pyridyl)-4-(2-hydroxyphenyl)-5-n-propyl-pyrazole], in the assay with Influenza viruses (ip), the response vs control in vivo at 500 mg/kg came out at 184% and the responders at 500 mg/kg was 50%.
Consider `CC(C)c1[nH]nc(-c2ccncc2)c1-c1ccccc1O` [Compound D, 3-(4-pyridyl)-4-(2-hydroxyphenyl)-5-isopropylpyrazole], for which, in the assay with Influenza viruses (ip), the response vs control in vivo at 5 mg/kg was 136%, the response vs control in vivo at 50 mg/kg was 131%, the response vs control in vivo at 500 mg/kg was found to be 269% and the responders at 5 mg/kg was 0%. Besides, in the assay on Influenza viruses (ip), the responders at 50 mg/kg was found to be 0% and the responders at 500 mg/kg was 100%. Besides, in the assay on Influenza viruses (po), the response vs control in vivo at 50 mg/kg was 167%, the response vs control in vivo at 500 mg/kg was 214%, the responders at 50 mg/kg is 40% and the responders at 500 mg/kg is 60%. Also, in the assay with Influenza virus Jap 305 [1] (setting [3]), the “Survival Percent” value is 30% and the S.I. was found to be 1.31. For the same compound, in the assay on Influenza virus Jap 305 [1] (setting [4]), the “Survival Percent” value worked out at 70% and the S.I. came out at 2.16. Also, in the assay with Influenza virus Jap 305 [1] (setting [5]), the “Survival Percent” value is 100% and the S.I. is 2.12. Further, in the assay with Influenza virus Jap 305 [2] (intranasal 2.5% suspension), the “MDD (Mean Day of Death)” value worked out at 10.50 days, the S.I. turned out to be 1.49 and the “Survival Percent” value was found to be 40%. In addition, in the assay on Influenza virus Jap 305 [2] (intranasal 5% suspension), the “MDD (Mean Day of Death)” value was determined as 9.76 days, the S.I. was 1.38 and the “Survival Percent” value was found to be 30%. Further, in the assay on Influenza virus Jap 305 [2] (intranasal 10% suspension), the “MDD (Mean Day of Death)” value is reported as 13.00 days, the S.I. was 1.84 and the “Survival Percent” value was found to be 60%.
As for `CCc1nn(C(C)C)c(-c2ccncc2)c1-c1ccccc1O` [Compound H, 2-isopropyl-3-(4-pyridyl)-4-(2-hydroxyphenyl)-5-ethylpyrazole], in the assay with Influenza viruses (ip), the response vs control in vivo at 50 mg/kg is 135%, the response vs control in vivo at 500 mg/kg was determined as 191%, the responders at 50 mg/kg worked out at 0% and the responders at 500 mg/kg is 30%.
On to `COc1ccc(O)c(-c2c(-c3ccncc3)n[nH]c2C)c1` [Compound F, 3-(4-pyridyl)-4-(2-hydroxy-5-methoxy-phenyl)-5-methylpyrazole], for which, in the assay on Influenza viruses (ip), the response vs control in vivo at 500 mg/kg was determined as 129% and the responders at 500 mg/kg was determined as 0%.
Consider `CCc1nn(C)c(-c2ccncc2)c1-c1ccccc1O` [Compound G, 2-methyl-3-(4-pyridyl)-4-(2-hydroxyphenyl)-5-ethyl-pyrazole], for which, in the assay on Influenza viruses (ip), the response vs control in vivo at 50 mg/kg amounted to 130%, the response vs control in vivo at 500 mg/kg turned out to be 217%, the responders at 50 mg/kg was determined as 0% and the responders at 500 mg/kg was 60%.
